Reference: ChEMBL document CHEMBL1201862, “PubChem BioAssay data set” (2004)
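Tested at 5 concentrations; 48 h exposure; 96-well plates; endpoints linearly interpolated, else capped at highest concentration. GI50 marks 50% less growth.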 Active and inactive are the calls of the source. Rule as the data show it: active = GI50 up to about 1.1 µM and inactive = higher.

Key:
Test in all cases: NCI anticancer screen, dose series, 48 h
BT-549 = system: BT-549
HCC 2998 = system: HCC 2998
ACHN = system: ACHN
MOLT-4 = system: MOLT-4
UACC-62 = system: UACC-62
HCT-116 = system: HCT-116
CCRF-CEM = system: CCRF-CEM
HT-29 = system: HT-29
Malme-3M = system: Malme-3M
SR = system: SR
EKVX = system: EKVX
NCI-H522 = system: NCI-H522
NCI-H460 = system: NCI-H460
MDA-MB-231 = system: MDA-MB-231
OVCAR-3 = system: OVCAR-3
M14 = system: M14
SK-MEL-5 = system: SK-MEL-5
SNB-19 = system: SNB-19
UACC-257 = system: UACC-257
SF-539 = system: SF-539
HOP-92 = system: HOP-92
RPMI-8226 = system: RPMI-8226
HL-60 = system: HL-60
TK-10 = system: TK-10
A549 = system: A549
MDA-MB-435 = system: MDA-MB-435
CAKI-1 = system: CAKI-1
NCI-H23 = system: NCI-H23
K562 = system: K562
IGROV-1 = system: IGROV-1
U-251 = system: U-251
OVCAR-8 = system: OVCAR-8
HOP-62 = system: HOP-62
SK-OV-3 = system: SK-OV-3
Hs-578T = system: Hs-578T
SF-295 = system: SF-295
SNB-75 = system: SNB-75
LOX IMVI = system: LOX IMVI
OVCAR-4 = system: OVCAR-4
T47D = system: T47D
KM12 = system: KM12
SK-MEL-2 = system: SK-MEL-2
NCI-H226 = system: NCI-H226
COLO 205 = system: COLO 205
786-0 = system: 786-0
NCI/ADR-RES = system: NCI/ADR-RES
SF-268 = system: SF-268
SN12C = system: SN12C
OVCAR-5 = system: OVCAR-5
DU-145 = system: DU-145
RXF 393 = system: RXF 393
HCT-15 = system: HCT-15
MCF7 = system: MCF7
SW-620 = system: SW-620
UO-31 = system: UO-31
PC-3 = system: PC-3
SK-MEL-28 = system: SK-MEL-28
A498 = system: A498

CC[C@H](CCCC[C@H]1CC[C@@H]2CC(=O)C[C@H]12)OC
GI50 (BT-549): 36.9 µM (inactive) | GI50 (HCC 2998): > 100 µM (inactive) | GI50 (ACHN): > 100 µM (inactive) | GI50 (MOLT-4): 53.6 µM (inactive) | GI50 (UACC-62): 60 µM (inactive) | GI50 (HCT-116): 52.2 µM (inactive) | GI50 (CCRF-CEM): 60.7 µM (inactive) | GI50 (HT-29): 59 µM (inactive) | GI50 (Malme-3M): > 100 µM (inactive) | GI50 (SR): 32.9 µM (inactive) | GI50 (EKVX): 60.1 µM (inactive) | GI50 (NCI-H522): 65.8 µM (inactive) | GI50 (NCI-H460): > 100 µM (inactive) | GI50 (MDA-MB-231): > 100 µM (inactive) | GI50 (OVCAR-3): 85.3 µM (inactive) | GI50 (M14): > 100 µM (inactive) | GI50 (SK-MEL-5): 31.4 µM (inactive) | GI50 (SNB-19): > 100 µM (inactive) | GI50 (UACC-257): 43.5 µM (inactive) | GI50 (SF-539): > 100 µM (inactive) | GI50 (HOP-92): 27.4 µM (inactive) | GI50 (RPMI-8226): 34 µM (inactive) | GI50 (HL-60): 24 µM (inactive) | GI50 (TK-10): > 100 µM (inactive) | GI50 (A549): 93.8 µM (inactive) | GI50 (MDA-MB-435): > 100 µM (inactive) | GI50 (CAKI-1): > 100 µM (inactive) | GI50 (NCI-H23): 35.5 µM (inactive) | GI50 (K562): 13 µM (inactive) | GI50 (IGROV-1): > 100 µM (inactive) | GI50 (U-251): 95.5 µM (inactive) | GI50 (OVCAR-8): > 100 µM (inactive) | GI50 (HOP-62): > 100 µM (inactive) | GI50 (SK-OV-3): > 100 µM (inactive) | GI50 (Hs-578T): > 100 µM (inactive) | GI50 (SF-295): 65.9 µM (inactive) | GI50 (SNB-75): > 100 µM (inactive) | GI50 (LOX IMVI): > 100 µM (inactive) | GI50 (OVCAR-4): > 100 µM (inactive) | GI50 (T47D): 58.9 µM (inactive) | GI50 (KM12): > 100 µM (inactive) | GI50 (SK-MEL-2): > 100 µM (inactive) | GI50 (NCI-H226): > 100 µM (inactive) | GI50 (COLO 205): > 100 µM (inactive) | GI50 (786-0): > 100 µM (inactive) | GI50 (NCI/ADR-RES): 47.4 µM (inactive)

CCOc1nc(N)nc(C)c1/N=N/c1ccc(Cl)cc1
GI50 (SF-268): > 100 µM (inactive) | GI50 (SN12C): 14.1 µM (inactive) | GI50 (BT-549): 59 µM (inactive) | GI50 (OVCAR-5): > 100 µM (inactive) | GI50 (ACHN): > 100 µM (inactive) | GI50 (MOLT-4): 10.7 µM (inactive) | GI50 (DU-145): > 100 µM (inactive) | GI50 (UACC-62): 94.4 µM (inactive) | GI50 (HCT-116): > 100 µM (inactive) | GI50 (CCRF-CEM): 41.3 µM (inactive) | GI50 (HT-29): > 100 µM (inactive) | GI50 (Malme-3M): 34.4 µM (inactive) | GI50 (SR): 1.86 µM (inactive) | GI50 (EKVX): 51.6 µM (inactive) | GI50 (NCI-H522): 69.7 µM (inactive) | GI50 (RXF 393): > 100 µM (inactive) | GI50 (NCI-H460): > 100 µM (inactive) | GI50 (MDA-MB-231): > 100 µM (inactive) | GI50 (OVCAR-3): > 100 µM (inactive) | GI50 (HCT-15): > 100 µM | GI50 (M14): > 100 µM (inactive) | GI50 (MCF7): > 100 µM (inactive) | GI50 (SK-MEL-5): 0.649 µM (active) | GI50 (SNB-19): > 100 µM (inactive) | GI50 (UACC-257): > 100 µM (inactive) | GI50 (SF-539): 36.9 µM (inactive) | GI50 (HOP-92): 13.7 µM (inactive) | GI50 (RPMI-8226): 25.9 µM (inactive) | GI50 (SW-620): > 100 µM (inactive) | GI50 (HL-60): > 100 µM (inactive) | GI50 (TK-10): > 100 µM (inactive) | GI50 (A549): > 100 µM (inactive) | GI50 (UO-31): 45 µM (inactive) | GI50 (MDA-MB-435): > 100 µM (inactive) | GI50 (CAKI-1): > 100 µM (inactive) | GI50 (NCI-H23): > 100 µM (inactive) | GI50 (K562): 48.5 µM (inactive) | GI50 (IGROV-1): > 100 µM (inactive) | GI50 (U-251): > 100 µM (inactive) | GI50 (PC-3): 82.8 µM (inactive) | GI50 (OVCAR-8): > 100 µM (inactive) | GI50 (HOP-62): > 100 µM (inactive) | GI50 (SK-OV-3): > 100 µM (inactive) | GI50 (Hs-578T): 0.124 µM (active) | GI50 (SK-MEL-28): > 100 µM (inactive) | GI50 (SF-295): 25.5 µM (inactive) | GI50 (SNB-75): > 100 µM (inactive) | GI50 (LOX IMVI): > 100 µM (inactive) | GI50 (OVCAR-4): > 100 µM (inactive) | GI50 (T47D): 73.8 µM (inactive) | GI50 (KM12): > 100 µM (inactive) | GI50 (SK-MEL-2): > 100 µM (inactive) | GI50 (NCI-H226): 20.6 µM (inactive) | GI50 (COLO 205): > 100 µM (inactive) | GI50 (786-0): > 100 µM (inactive) | GI50 (NCI/ADR-RES): > 100 µM (inactive)

CC1=CCC(C)=Nc2nc3ccccc3n21
GI50 (SF-268): > 100 µM (inactive) | GI50 (SN12C): > 100 µM (inactive) | GI50 (BT-549): > 100 µM (inactive) | GI50 (OVCAR-5): > 100 µM (inactive) | GI50 (ACHN): > 100 µM (inactive) | GI50 (MOLT-4): > 100 µM (inactive) | GI50 (DU-145): > 100 µM (inactive) | GI50 (UACC-62): > 100 µM (inactive) | GI50 (HCT-116): > 100 µM (inactive) | GI50 (CCRF-CEM): > 100 µM (inactive) | GI50 (HT-29): > 100 µM (inactive) | GI50 (Malme-3M): > 100 µM (inactive) | GI50 (SR): > 100 µM (inactive) | GI50 (EKVX): > 100 µM (inactive) | GI50 (NCI-H522): > 100 µM (inactive) | GI50 (RXF 393): > 100 µM (inactive) | GI50 (NCI-H460): > 100 µM (inactive) | GI50 (MDA-MB-231): > 100 µM (inactive) | GI50 (OVCAR-3): > 100 µM (inactive) | GI50 (HCT-15): > 100 µM | GI50 (M14): > 100 µM (inactive) | GI50 (MCF7): > 100 µM (inactive) | GI50 (SK-MEL-5): > 100 µM (inactive) | GI50 (SNB-19): > 100 µM (inactive) | GI50 (UACC-257): > 100 µM (inactive) | GI50 (SF-539): > 100 µM (inactive) | GI50 (HOP-92): > 100 µM (inactive) | GI50 (RPMI-8226): > 100 µM (inactive) | GI50 (SW-620): > 100 µM (inactive) | GI50 (HL-60): > 100 µM (inactive) | GI50 (TK-10): > 100 µM (inactive) | GI50 (A498): > 100 µM (inactive) | GI50 (A549): > 100 µM (inactive) | GI50 (UO-31): 23.2 µM (inactive) | GI50 (MDA-MB-435): > 100 µM (inactive) | GI50 (CAKI-1): > 100 µM (inactive) | GI50 (NCI-H23): > 100 µM (inactive) | GI50 (K562): > 100 µM (inactive) | GI50 (IGROV-1): > 100 µM (inactive) | GI50 (U-251): > 100 µM (inactive) | GI50 (PC-3): > 100 µM (inactive) | GI50 (OVCAR-8): > 100 µM (inactive) | GI50 (HOP-62): > 100 µM (inactive) | GI50 (SK-OV-3): > 100 µM (inactive) | GI50 (Hs-578T): > 100 µM (inactive) | GI50 (SK-MEL-28): > 100 µM (inactive) | GI50 (SF-295): > 100 µM (inactive) | GI50 (LOX IMVI): > 100 µM (inactive) | GI50 (OVCAR-4): > 100 µM (inactive) | GI50 (T47D): > 100 µM (inactive) | GI50 (KM12): > 100 µM (inactive) | GI50 (SK-MEL-2): > 100 µM (inactive) | GI50 (NCI-H226): > 100 µM (inactive) | GI50 (COLO 205): > 100 µM (inactive) | GI50 (786-0): > 100 µM (inactive) | GI50 (NCI/ADR-RES): > 100 µM (inactive)
